# Data reported in patent US7064120B2, “Tricyclic pyridyl carboxamides and derivatives thereof tocolytic oxytocin receptor antagonists” (Wyeth, priority 2001, dated 2006).
# Target: T1, human vasopressin V2 receptor subtype (Homo sapiens, UniProt P30518)
# T1 construct: host or cells: CHO cells, stably transfected (pZeoSV vector)
# Assay: Vasopressin binding in CHO cell membranes expressing human vasopressin V2 subtype receptors ([3H]arginine vasopressin radioligand binding)
# Settings: 100 nM
# Summary of the method: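 Values are IC50 in nM or percent inhibition at a stated concentration, from scintillation counts after filtration. Binding ran 60 min at room temperature: [3H]arginine vasopressin, human V2-transfected CHO membranes (25 to 50 μg protein/well), pH 7.4 Tris-HCl buffer containing MgCl2, BSA, protease inhibitors.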
# T1 sequence (P30518 whole entry): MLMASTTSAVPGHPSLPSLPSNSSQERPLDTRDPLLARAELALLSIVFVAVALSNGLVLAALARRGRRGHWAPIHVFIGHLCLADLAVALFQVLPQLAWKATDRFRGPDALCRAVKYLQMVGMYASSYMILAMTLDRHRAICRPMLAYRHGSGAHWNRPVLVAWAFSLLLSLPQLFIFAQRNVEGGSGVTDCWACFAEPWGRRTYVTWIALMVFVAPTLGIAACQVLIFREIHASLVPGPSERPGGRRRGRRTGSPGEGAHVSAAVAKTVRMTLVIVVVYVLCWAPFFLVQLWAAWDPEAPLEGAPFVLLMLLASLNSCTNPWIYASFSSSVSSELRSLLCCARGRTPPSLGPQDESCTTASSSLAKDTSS
row,Compound,inhibition at 0.1 µM
1,"COc1ccccc1-c1ccc(C(=O)N2Cc3ccc(C(=O)NCc4cccnc4)n3Cc3ccccc32)cc1C [Example 36, 10-[(2′-Methoxy-2-methyl-[1,1′-biphenyl]-4-yl)carbonyl]-N-(3-pyridinylmethyl)-10,11-dihydro-5H-pyrrolo[2,1-c][1,4]benzodiazepine-3-carboxamide]",24%
2,"COc1cc(-c2ccccc2C)c(Cl)cc1C(=O)N1Cc2ccc(C(=O)NCc3cccnc3)n2Cc2ccccc21 [Example 42, 10-[(6-Chloro-3-methoxy-2′-methyl-[1,1′-biphenyl]-4-yl)carbonyl]-N-(3-pyridinylmethyl)-10,11-dihydro-5H-pyrrolo[2,1-c][1,4]benzodiazepine-3-carboxamide]",8%
3,"COc1cc(C(=O)N2Cc3ccc(C(=O)NCc4cccnc4)n3Cc3ccccc32)ccc1-c1ccccc1C [Example 41, 10-[(2-Methoxy-2′-methyl-[1,1′-biphenyl]-4-yl)carbonyl]-N-(3-pyridinylmethyl)-10,11-dihydro-5H-pyrrolo[2,1-c][1,4]benzodiazepine-3-carboxamide]",16%
4,"Cc1ccccc1-c1ccc(C(=O)N2Cc3ccc(C(=O)NCc4cccnc4)n3Cc3ccccc32)cc1 [Example 40, 10-[(2′-Methyl-[1,1′-biphenyl]-4-yl)carbonyl]-N-(3-pyridinylmethyl)-10,11-dihydro-5H-pyrrolo[2,1-c][1,4]benzodiazepine-3-carboxamide]",11%
5,"COc1cccc(-c2cc(OC)c(C(=O)N3Cc4ccc(C(=O)NCc5cccnc5)n4Cc4ccccc43)cc2Cl)c1 [Example 43, 10-[(6-Chloro-3,3′-dimethoxy-[1,1′-biphenyl]-4-yl)carbonyl]-N-(3-pyridinylmethyl)-10,11-dihydro-5H-pyrrolo[2,1-c][1,4]benzodiazepine-3-carboxamide]",7%
6,"COc1cc(-c2ccccc2C)c(Cl)cc1C(=O)N1Cc2ccc(C(=O)NCc3ccccn3)n2Cc2ccccc21 [Example 29, 10-[(6-Chloro-3-methoxy-2′-methyl-[1,1′-biphenyl]-4-yl)carbonyl]-N-(2-pyridinylmethyl)-10,11-dihydro-5H-pyrrolo[2,1-c][1,4]benzodiazepine-3-carboxamide]",12%
7,"COc1ccccc1-c1ccc(C(=O)N2Cc3ccc(C(=O)NCc4cccnc4)n3Cc3ccccc32)cc1 [Example 39, 10-[(2′-Methoxy-[1,1′-biphenyl]-4-yl)carbonyl]-N-(3-pyridinylmethyl)-10,11-dihydro-5H-pyrrolo[2,1-c][1,4]benzodiazepine-3-carboxamide]",11%
8,"COc1ccccc1-c1ccc(C(=O)N2Cc3ccc(C(=O)NCc4ccccn4)n3Cc3ccccc32)cc1C [Example 24, 10-[(2′-Methoxy-2-methyl-[1,1′-biphenyl]-4-yl)carbonyl]-N-(2-pyridinylmethyl)-10,11-dihydro-5H-pyrrolo[2,1-c][1,4]benzodiazepine-3-carboxamide]",26%
9,"COc1cccc(-c2ccc(C(=O)N3Cc4ccc(C(=O)NCc5cccnc5)n4Cc4ccccc43)cc2C)c1 [Example 38, 10-[(3′-Methoxy-2-methyl-[1,1′-biphenyl]-4-yl)carbonyl]-N-(3-pyridinylmethyl)-10,11-dihydro-5H-pyrrolo[2,1-c][1,4]benzodiazepine-3-carboxamide]",21%

# The next lines start with the values.
row,inhibition at 0.1 µM,Compound
1,-10%,"COc1cc(C(=O)N2Cc3ccc(C(=O)N(C)Cc4cccnc4)n3Cc3ccccc32)ccc1-c1ccccc1C [Example 106, 10-[(2-Methoxy-2′-methyl-[1,1′-biphenyl]-4-yl)carbonyl]-N-methyl-N-(3-pyridinylmethyl)-10,11-dihydro-5H-pyrrolo[2,1-c][1,4]benzodiazepine-3-carboxamide]"
2,19%,"COc1ccccc1-c1ccc(C(=O)N2Cc3ccc(C(=O)NCc4cccnc4)n3Cc3ccccc32)cc1OC [Example 45, 10-[(2,2′-Dimethoxy-[1,1′-biphenyl]-4-yl)carbonyl]-N-(3-pyridinylmethyl)-10,11-dihydro-5H-pyrrolo[2,1-c][1,4]benzodiazepine-3-carboxamide]"
3,40%,"COc1ccccc1-c1ccc(C(=O)N2Cc3ccc(C(=O)N4CCCCC4c4cccnc4)n3Cc3ccccc32)cc1OC (stereo not shown) [Example 141, {10-[(2,2′-Dimethoxy-[1,1′-biphenyl]-4-yl)carbonyl]-10,11-dihydro-5H-pyrrolo[2,1-c][1,4]benzodiazepin-3-yl}[2-(3-pyridinyl)-1-piperidinyl]methanone]"
4,8%,"COc1cccc(-c2ccc(C(=O)N3Cc4ccc(C(=O)N5CCN(c6ccncc6)CC5)n4Cc4ccccc43)cc2C)c1 [Example 115, {10-[(3′-Methoxy-2-methyl-[1,1′-biphenyl]-4-yl)carbonyl]-10,11-dihydro-5H-pyrrolo[2,1-c][1,4]benzodiazepin-3-yl}[4-(4-pyridinyl)-1-piperazinyl]methanone]"
5,28%,"COc1ccccc1-c1ccc(C(=O)N2Cc3ccc(C(=O)N(C)CCc4ccncc4)n3Cc3ccccc32)cc1 [Example 129, 10-[(2′-Methoxy-[1,1′-biphenyl]-4-yl)carbonyl]-N-methyl-N-[2-(4-pyridinyl)ethyl]-10,11-dihydro-5H-pyrrolo[2,1-c][1,4]benzodiazepine-3-carboxamide]"
6,4%,"Cc1ccccc1-c1ccc(C(=O)N2Cc3ccc(C(=O)N4CCN(c5ccncc5)CC4)n3Cc3ccccc32)cc1 [Example 117, {10-[(2′-Methyl-[1,1′-biphenyl]-4-yl)carbonyl]-10,11-dihydro-5H-pyrrolo[2,1-c][1,4]benzodiazepin-3-yl}[4-(4-pyridinyl)-1-piperazinyl]methanone]"
7,26%,"COc1ccccc1-c1ccc(C(=O)N2Cc3ccc(C(=O)NCCc4ccccn4)n3Cc3ccccc32)cc1C [Example 49, 10-[(2′-Methoxy-2-methyl-[1,1′-biphenyl]-4-yl)carbonyl]-N-[2-(2-pyridinyl)ethyl]-10,11-dihydro-5H-pyrrolo[2,1-c][1,4]benzodiazepine-3-carboxamide]"
8,10%,"COc1cccc(-c2ccc(C(=O)N3Cc4ccc(C(=O)N(C)CCc5ccncc5)n4Cc4ccccc43)cc2C)c1 [Example 128, 10-[(3′-Methoxy-2-methyl-[1,1′-biphenyl]-4-yl)carbonyl]-N-methyl-N-[2-(4-pyridinyl)ethyl]-10,11-dihydro-5H-pyrrolo[2,1-c][1,4]benzodiazepine-3-carboxamide]"
9,5%,"COc1ccccc1-c1ccc(C(=O)N2Cc3ccc(C(=O)N(C)CCc4ccncc4)n3Cc3ccccc32)cc1C [Example 126, 10-[(2′-Methoxy-2-methyl-[1,1′-biphenyl]-4-yl)carbonyl]-N-methyl-N-[2-(4-pyridinyl)ethyl]-10,11-dihydro-5H-pyrrolo[2,1-c][1,4]benzodiazepine-3-carboxamide]"
10,15%,"O=C(NCCc1ccccn1)c1ccc2n1Cc1ccccc1N(C(=O)c1ccc(-c3cccc4ccccc34)cc1Cl)C2 [Example 60, 10-[2-Chloro-4-(naphthalen-1-yl)benzoyl]-N-[2-(2-pyridinyl)ethyl]-10,11-dihydro-5H-pyrrolo[2,1-c][1,4]benzodiazepine-3-carboxamide]"
